Data as given in ChEMBL document CHEMBL5233253, “β-Lactams as promising anticancer agents: Molecular hybrids, structure activity relationships and potential targets” (Eur J Med Chem, 2020).

Key:
[1] = Inhibition of Klebsiella pneumoniae beta Metallo-beta-lactamase IMP-28
HEK293 = assay: Antiproliferative activity against human HEK293 cells assessed as inhibition of cell growth measured after 48 hrs by MTT assay; assay type: functional, cell-based; settings: HEK293, 48 h
MCF7 = assay: Cytotoxicity against human MCF7 cells assessed as inhibition of cell growth by MTT assay; assay type: functional, cell-based
A549 = assay: Cytotoxicity against human A549 cells assessed as inhibition of cell growth by MTT assay; assay type: functional, cell-based
[2] = Anti-keratosis activity in vitamin-A-deficient hamster trachea in presence of beta-lactamase; assay type: functional, tissue-based, Cricetulus griseus
Heat shock protein HSP90 = Heat shock protein HSP90 (Homo sapiens, UniProt P07900+P08238); assay: Inhibition of HSP90 (unknown origin); assay type: protein assay
Tubulin = assay: Inhibition of tubulin (unknown origin) polymerization incubated for 5 mins by spectrophotometer analysis; assay type: protein-complex assay, Homo sapiens
HT-1080 = assay: Cytotoxicity against human HT-1080 cells assessed reduction in cell viability; assay type: functional, cell-based
L1210 = assay: Cytotoxicity against mouse L1210 cells assessed as reduction in cell viability; assay type: functional, cell-based
CCRF-CEM = assay: Cytotoxicity against human CEM cells assessed reduction in cell viability; assay type: functional, cell-based

O=C(O)c1ccc(COC(=O)[C@H]2[C@@H](Cc3ccccc3)C(=O)N2C(=O)Cc2cccc(C(=O)OCc3ccccc3)c2)cc1
IC50 [1]: 0.34 µM

C[C@H](CCC(=O)OCc1cn([C@@H]2C(=O)N(CCN3C(=O)[C@@H](n4cc(COC(=O)CC[C@@H](C)[C@H]5CC[C@H]6[C@@H]7[C@H](O)C[C@@H]8C[C@H](O)CC[C@]8(C)[C@H]7C[C@H](O)[C@]56C)nn4)[C@H]3c3ccccc3)[C@@H]2c2ccccc2)nn1)[C@H]1CC[C@H]2[C@@H]3CC[C@@H]4C[C@H](O)CC[C@]4(C)[C@H]3C[C@H](O)[C@]12C
IC50 (HEK293): 10 µM

CC(O)C1C(=O)NC1OC(=O)/C=C/c1ccc(N)cc1 (centres undefined)
IC50 (MCF7): 1.59 µM
IC50 (A549): 1.59 µM

C[C@H](CCC(=O)NCc1cn([C@@H]2C(=O)N(CCN3C(=O)[C@@H](n4cc(CNC(=O)CC[C@@H](C)[C@H]5CC[C@H]6[C@@H]7CC[C@@H]8C[C@H](O)CC[C@]8(C)[C@H]7C[C@H](O)[C@]56C)nn4)[C@H]3c3ccccc3)[C@@H]2c2ccccc2)nn1)[C@H]1CC[C@H]2[C@@H]3CC[C@@H]4C[C@H](O)CC[C@]4(C)[C@H]3C[C@H](O)[C@]12C
IC50 (HEK293): 500 µM

C[C@H](CCC(=O)NCc1cn([C@@H]2C(=O)N(CCN3C(=O)[C@@H](n4cc(CNC(=O)CC[C@@H](C)[C@H]5CC[C@H]6[C@@H]7[C@H](O)C[C@@H]8C[C@H](O)CC[C@]8(C)[C@H]7C[C@H](O)[C@]56C)nn4)[C@H]3c3ccccc3)[C@@H]2c2ccccc2)nn1)[C@H]1CC[C@H]2[C@@H]3CC[C@@H]4C[C@H](O)CC[C@]4(C)[C@H]3C[C@H](O)[C@]12C
IC50 (HEK293): 100 µM

C[C@H](CCC(=O)OCc1cn([C@@H]2C(=O)N(CCN3C(=O)[C@@H](n4cc(COC(=O)CC[C@@H](C)[C@H]5CC[C@H]6[C@@H]7CC[C@@H]8C[C@H](O)CC[C@]8(C)[C@H]7C[C@H](O)[C@]56C)nn4)[C@H]3c3ccccc3)[C@@H]2c2ccccc2)nn1)[C@H]1CC[C@H]2[C@@H]3CC[C@@H]4C[C@H](O)CC[C@]4(C)[C@H]3C[C@H](O)[C@]12C
IC50 (HEK293): > 1000 µM

O=C(OCc1ccccc1)c1cccc(CC(=O)N2C(=O)[C@H](Cc3ccccc3)[C@@H]2C(=O)OCc2ccccc2)c1
IC50 [1]: 0.34 µM

CC1=C(/C=C/C(C)=C/C=C/C(C)=C/C(=O)OCC2=C(C(=O)O)N3C(=O)[C@@H](NC(=O)COc4ccccc4)[C@H]3[S+]([O-])C2)C(C)(C)CCC1 (some centres undefined)
EC50 [2]: 0.0391 nM

O=C(OCc1ccccc1)[C@H]1[C@@H](Cc2ccc(O)cc2)C(=O)N1C(=O)c1ccccc1
IC50 [1]: 0.34 µM

COc1ccc(/C=C/C(=O)OC2NC(=O)C2C(C)O)cc1 (centres undefined)
IC50 (MCF7): 1.59 µM
IC50 (A549): 1.59 µM

CCc1cc([C@@H]2CC(=O)N2c2ccc3c(c2)OCCO3)c(O)cc1O
IC50 (Heat shock protein HSP90): 5.6 µM

COc1cc(N2C(=O)[C@H](c3cccs3)[C@H]2c2cccc(N=[N+]=[N-])c2)cc(OC)c1OC
IC50 (Tubulin): 2.26 µM

CC(O)C1C(=O)NC1OC(=O)/C=C/c1ccccc1 (centres undefined)
IC50 (MCF7): 1.59 µM
IC50 (A549): 1.59 µM

CC(O)C1C(=O)NC1OC(=O)/C=C/c1ccc(Cl)cc1 (centres undefined)
IC50 (MCF7): 1.59 µM
IC50 (A549): 1.59 µM

C=C(C)[C@H](C(=O)OC(c1ccccc1)c1ccccc1)N1C(=O)/C(=C/C(=O)OC(C)(C)C)[C@H]1SSc1nc2ccccc2s1
IC50 (HT-1080): 0.4 µM

Cc1cn(CCCN2C(=O)C(OCc3ccccc3)C2c2ccc(Br)cc2)c(=O)n(CCCN2C(=O)C(OCc3ccccc3)C2c2ccc(Br)cc2)c1=O (centres undefined)
IC50 (L1210): 4.1 µM
IC50 (CCRF-CEM): 3.4 µM

CC(O)C1C(=O)NC1OC(=O)/C=C/c1ccc(Br)cc1 (centres undefined)
IC50 (MCF7): 1.59 µM
IC50 (A549): 1.59 µM

O=C(OCc1ccccc1)c1cccc(CC(=O)N2C(=O)[C@H](Cc3ccc(O)cc3)[C@@H]2C(=O)OCc2ccccc2)c1
IC50 [1]: 0.34 µM
